Results on 20 molecules are retold here after PubChem BioAssay AID651630 (Sanford-Burnham Center for Chemical Genomics, 2012).

The structures appear in SMILES notation. Activity calls are given as the source filed them.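 How the source made its calls: active means lipid-stain IC50 at or below a set limit, with nuclear-stain toxicity IC50 at least five times higher; inactive means the rest.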

The subject of one assay is DAPI. Kind of assay: triacylglycerol accumulation inhibitor potency, dose response, cell-based, panel, Nile Red and DAPI fluorescence, H9c2 (AID 651630).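 Further: cells exposed to compound overnight before fixation and staining.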 The conditions noted are these: H9c2 cells, DAPI nuclear fluorescence (cytotoxicity counter-readout), oleic acid.
The test system of a further assay is TAG. The description is as above. The following applies: H9c2 cells, Nile Red TAG fluorescence, oleic acid.

On to `Cc1ccc(CN(C)C(=O)CN2C(=O)NC3(CCCc4ccccc43)C2=O)c(C)c1` (stereo not drawn), for which the IC50 cytotoxicity (DAPI nuclear signal decrease) in the assay with DAPI (mean of runs) is > 25 µM (inactive); with DAPI (run 1), greater than 25 µM; in the assay with DAPI (run 2), greater than 25 µM. In addition, the values for the IC50 with TAG (run 1) and in the assay on TAG (run 2) were 21.7 µM and greater than 25 µM, respectively.
As for `CCOc1ccc2nc(NC(=O)CN3CCC(n4nnc5cc(F)ccc54)CC3)sc2c1`, the IC50 cytotoxicity (DAPI nuclear signal decrease) with DAPI (mean of runs) is > 25 µM (inactive); in the assay on DAPI (run 1) it was greater than 25 µM; in the assay with DAPI (run 2), greater than 25 µM. The IC50 in the assay on TAG (mean of runs) is 21.3 µM (inactive); in the assay on TAG (run 1), 17.9 µM; with TAG (run 2), 24.6 µM.
Turning to `CC(CC(=O)Nc1ccc2c(c1)c(=O)n(C)n2-c1ccc2ccccc2c1)C(F)(F)F` (stereo not drawn), the IC50 cytotoxicity (DAPI nuclear signal decrease) was > 25 µM (inactive) with DAPI (mean of runs), greater than 25 µM in the assay on DAPI (run 1) and greater than 25 µM with DAPI (run 2). The IC50 in the assay with TAG (mean of runs) is > 25 µM (inactive); in the assay with TAG (run 1) it was greater than 25 µM; with TAG (run 2), greater than 25 µM.
On to `CCCc1cc(C(=O)N/N=C/c2ccc(CC)s2)c2ccccc2n1`, for which the IC50 cytotoxicity (DAPI nuclear signal decrease) was > 25 µM (inactive) with DAPI (mean of runs), greater than 25 µM in the assay on DAPI (run 1) and greater than 25 µM in the assay on DAPI (run 2). Also, the IC50 with TAG (mean of runs) was > 25 µM (inactive); with TAG (run 1) it was greater than 25 µM; with TAG (run 2), greater than 25 µM.
As for `CCCSc1ccc2nc(NC(=O)OC)[nH]c2c1`, the figures for the IC50 cytotoxicity (DAPI nuclear signal decrease) with DAPI (mean of runs), with DAPI (run 1) and with DAPI (run 2) were > 25 µM (inactive), greater than 25 µM and greater than 25 µM, respectively. Moreover, the IC50 in the assay with TAG (mean of runs) is > 25 µM (inactive); with TAG (run 1) it was greater than 25 µM; in the assay on TAG (run 2), greater than 25 µM.
Regarding `COc1ccc(-c2cc(NC=O)c3ncc(-c4cc(OC)c(OC)c(OC)c4)n3c2)c(OC)c1`, the IC50 cytotoxicity (DAPI nuclear signal decrease) in the assay with DAPI (mean of runs) is > 25 µM (inactive); in the assay with DAPI (run 1) it was greater than 25 µM; in the assay with DAPI (run 2) it was greater than 25 µM. Further, the IC50 is > 25 µM (inactive) in the assay with TAG (mean of runs), greater than 25 µM in the assay with TAG (run 1) and greater than 25 µM in the assay on TAG (run 2).
`C[C@H](CO)N1C[C@H](C)[C@H](CN(C)S(=O)(=O)c2ccc(Cl)cc2)OCc2ccccc2-c2c(n(C)c3ccccc23)C1=O`: the IC50 cytotoxicity (DAPI nuclear signal decrease) in the assay with DAPI (run 1) is 13 µM; in the assay on DAPI (run 2), greater than 25 µM. The IC50 in the assay on TAG (mean of runs) was > 25 µM (inactive); in the assay with TAG (run 1), greater than 25 µM; in the assay with TAG (run 2), greater than 25 µM.
Turning to `N/C(=N\c1nc2ccccc2o1)NC(=O)c1ccc(F)cc1`, the values for the IC50 cytotoxicity (DAPI nuclear signal decrease) with DAPI (mean of runs), with DAPI (run 1) and in the assay with DAPI (run 2) were > 25 µM (inactive), greater than 25 µM and greater than 25 µM, respectively. The IC50 is > 25 µM (inactive) with TAG (mean of runs), greater than 25 µM with TAG (run 1) and greater than 25 µM in the assay on TAG (run 2).
As to `Cc1[nH]c2ccccc2c1/C=N/Nc1nc(Nc2ccc(F)cc2)nc(N2CCOCC2)n1`, the IC50 cytotoxicity (DAPI nuclear signal decrease) in the assay on DAPI (mean of runs) was > 25 µM (inactive); in the assay on DAPI (run 1), greater than 25 µM; with DAPI (run 2) it was greater than 25 µM. For the same molecule, the IC50 with TAG (mean of runs) was 20.6 µM (inactive); in the assay on TAG (run 1), 21.6 µM; in the assay on TAG (run 2) it was 19.7 µM.
On to `CCOc1ccccc1NC(=O)c1cccc(NC(=O)c2ccco2)c1`, for which the IC50 cytotoxicity (DAPI nuclear signal decrease) in the assay on DAPI (mean of runs) was > 25 µM (inactive); in the assay with DAPI (run 1), greater than 25 µM; in the assay on DAPI (run 2) it was greater than 25 µM. Besides, the half-inhibitory concentration (IC50) was greater than 25 µM with TAG (run 1) and 9.58 µM in the assay on TAG (run 2).
Turning to `CCCCCCSc1ccc([C@H]2N[C@@](CC(C)C)(C(=O)OC)[C@H]3C(=O)N(C)C(=O)[C@@H]23)cc1OC`, the IC50 cytotoxicity (DAPI nuclear signal decrease) was > 25 µM (inactive) in the assay on DAPI (mean of runs), greater than 25 µM in the assay with DAPI (run 1) and greater than 25 µM with DAPI (run 2). Further, the IC50 with TAG (mean of runs) is > 25 µM (inactive); with TAG (run 1), greater than 25 µM; in the assay with TAG (run 2), greater than 25 µM.
Regarding `COc1ccc(CC(=O)Nc2ccc(-c3ccc4nnc(C)n4n3)cc2)cc1OC`, the IC50 cytotoxicity (DAPI nuclear signal decrease) was > 25 µM (inactive) in the assay on DAPI (mean of runs), greater than 25 µM in the assay with DAPI (run 1) and greater than 25 µM with DAPI (run 2). The IC50 was 16.5 µM (inactive) in the assay with TAG (mean of runs), 15.2 µM with TAG (run 1) and 17.8 µM in the assay on TAG (run 2).
On to `CNC(=S)NN=C(C)CCCC(C)=NNC(=S)NC`, for which the IC50 cytotoxicity (DAPI nuclear signal decrease) in the assay on DAPI (run 1) is 11.3 µM; in the assay with DAPI (run 2), greater than 25 µM. Also, the results for the IC50 with TAG (mean of runs), in the assay with TAG (run 1) and with TAG (run 2) were > 25 µM (inactive), greater than 25 µM and greater than 25 µM, respectively.
Regarding `Cc1noc(C)c1COc1cccc(C(=O)OCC(=O)N2CC(=O)Nc3ccccc32)c1`, the IC50 cytotoxicity (DAPI nuclear signal decrease) was > 25 µM (inactive) in the assay with DAPI (mean of runs), greater than 25 µM in the assay on DAPI (run 1) and greater than 25 µM in the assay on DAPI (run 2). Also, the IC50 is 15.4 µM (inactive) in the assay with TAG (mean of runs), 11.2 µM with TAG (run 1) and 19.7 µM with TAG (run 2).
For `O=C1N=C(N2CCOCC2)S/C1=C/c1ccc(-c2ccc(F)cc2)o1`, the IC50 cytotoxicity (DAPI nuclear signal decrease) was > 25 µM (inactive) in the assay with DAPI (mean of runs), greater than 25 µM in the assay on DAPI (run 1) and greater than 25 µM in the assay with DAPI (run 2). The IC50 was 19.7 µM (inactive) with TAG (mean of runs), 18.6 µM with TAG (run 1) and 20.7 µM with TAG (run 2).
Take `OC1CC2CCC(C1)N2CCCN1c2ccccc2Sc2ccc(Cl)cc21` (stereo not drawn): the IC50 cytotoxicity (DAPI nuclear signal decrease) with DAPI (run 1) was 19.4 µM; with DAPI (run 2) it was greater than 25 µM. Also, the IC50 with TAG (run 1) was 10.3 µM; with TAG (run 2) it was greater than 25 µM.
In the case of `c1ccc(N(c2ccccc2)c2nc(N3CCCC3)nc(-n3ccnc3)n2)cc1`, the IC50 cytotoxicity (DAPI nuclear signal decrease) was > 25 µM (inactive) in the assay on DAPI (mean of runs), greater than 25 µM in the assay with DAPI (run 1) and greater than 25 µM in the assay with DAPI (run 2). In addition, the IC50 in the assay on TAG (mean of runs) was 17.7 µM (inactive); in the assay on TAG (run 1) it was 19.1 µM; with TAG (run 2), 16.3 µM.
As to `COc1ccc(CCn2c(-n3nc(C)cc3C)nc3c2c(=O)[nH]c(=O)n3C)cc1`, the figures for the IC50 cytotoxicity (DAPI nuclear signal decrease) in the assay with DAPI (mean of runs), with DAPI (run 1) and in the assay on DAPI (run 2) were > 25 µM (inactive), greater than 25 µM and greater than 25 µM, respectively. Also, the values for the IC50 in the assay with TAG (mean of runs), in the assay on TAG (run 1) and with TAG (run 2) were > 25 µM (inactive), greater than 25 µM and greater than 25 µM, respectively.
In the case of `CCOC(=O)[C@@H]1[C@H]2COc3ccc(Br)cc3[C@@H]2N2C(=O)N(c3ccc(C(F)(F)F)cc3)C(=O)[C@@]12C`, the IC50 cytotoxicity (DAPI nuclear signal decrease) in the assay with DAPI (run 1) and in the assay with DAPI (run 2) was greater than 25 µM each time. In addition, the IC50 with TAG (mean of runs) is 3.24 µM; in the assay with TAG (run 1), 2.27 µM; in the assay on TAG (run 2), 4.21 µM.
In the case of `Cc1ccc(/C=N/NC(=O)c2c(C)nc3ccc(Br)cn23)cc1`, the IC50 cytotoxicity (DAPI nuclear signal decrease) in the assay with DAPI (mean of runs) is > 25 µM (inactive); in the assay on DAPI (run 1) it was greater than 25 µM; in the assay on DAPI (run 2), greater than 25 µM. Besides, the IC50 in the assay with TAG (mean of runs) was > 25 µM (inactive); in the assay on TAG (run 1) it was greater than 25 µM; in the assay on TAG (run 2), greater than 25 µM.
